Data from ChEMBL document CHEMBL1128792, “Aromatic amino acid phosphoramidate di- and triesters of 3-azido-3-deoxythymidine (AZT) are non-toxic inhibitors of HIV-1 replication” (Bioorg Med Chem Lett, 1995).
pEC50, pIC50: −log10 of the molar value.

Experiments:
CCRF-CEM = test: Cytotoxic concentration towards CEM cells; assay type: functional; conditions: Homo sapiens
[1] = molecular target: Human immunodeficiency virus type 1 reverse transcriptase (Human immunodeficiency virus 1, UniProt Q72547); test: Tested for the inhibition towards HIV-reverse transcriptase
[2] = Cytotoxic concentration towards peripheral blood mononuclear cells; assay type: functional; conditions: Homo sapiens
[3] = Effective molar concentration required to inhibit the replication of HIV-1 in human peripheral blood mononuclear cells by 50% (PBMC) was determined; assay type: functional

Row | Structure (SMILES) | pIC50 [1] | pEC50 [3] | CC50 (CCRF-CEM) [µM] | CC50 [2] [µM]
1 | COC(=O)[C@H](Cc1c[nH]c2ccccc12)NP(=O)(OCCC#N)OCC1OC(n2cc(C)c(=O)[nH]c2=O)CC1N=[N+]=[N-] (stereo partly specified) | < 4.00 | 6.40 | > 100 | > 100
2 | COC(=O)[C@H](Cc1ccccc1)NP(=O)(OCCC#N)OCC1OC(n2cc(C)c(=O)[nH]c2=O)CC1N=[N+]=[N-] (stereo partly specified) | < 4.00 | < 6.00 | > 100 | > 100
3 | COC(=O)[C@H](Cc1ccccc1)NP(=O)(OC)OCC1OC(n2cc(C)c(=O)[nH]c2=O)CC1N=[N+]=[N-] (stereo partly specified) |  | 7.05 | > 50 | > 100
4 | COC(=O)[C@H](Cc1c[nH]c2ccccc12)NP(=O)(OC)OCC1OC(n2cc(C)c(=O)[nH]c2=O)CC1N=[N+]=[N-] (stereo partly specified) |  | 6.52 | > 50 | > 50

The remaining compounds from weak to strong by pEC50 [3], led by results:

Row | pIC50 [1] | pEC50 [3] | Structure (SMILES) | CC50 (CCRF-CEM) [µM] | CC50 [2] [µM]
5 | < 4.00 | 6.22 | COC(=O)[C@H](Cc1ccccc1)NP(=O)(O)OCC1OC(n2cc(C)c(=O)[nH]c2=O)CC1N=[N+]=[N-] (stereo partly specified) | > 100 | > 100
6 | 8.00 | 7.10 | Cc1cn([C@H]2C[C@H](N=[N+]=[N-])[C@@H](CO)O2)c(=O)[nH]c1=O [ZIDOVUDINE] | 14.3 | > 100
7 | < 4.00 | 8.00 | COC(=O)[C@H](Cc1c[nH]c2ccccc12)NP(=O)(O)OC[C@H]1O[C@@H](n2cc(C)c(=O)[nH]c2=O)C[C@@H]1N=[N+]=[N-] | > 100 | > 100
